Common to all, as to type: cell-based
One experiment deals with BTK (Homo sapiens, UniProt Q06187). Kind of experiment: BTK degradation, DC50 and Dmax of Table 1 (cell line not given). Further details: endogenous in cells. The conditions noted are these: for DC50: concentration giving 50% reduction of BTK expression level.
For a further experiment, the system named is JeKo-1 cells. Kind of experiment: Antiproliferative effect, MTS cell viability assay, JeKo-1 cells. The conditions noted are these: JeKo-1 mantle cell lymphoma cells, read-out: IC50 (anti-proliferation) JeKO-1 cells. In short, it runs like this: (§1)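 Absorbance at 490 nm of formazan, formed by metabolically active cells from MTS tetrazolium, served as the viability measure after a 72 h treatment across a 0.001–10 μM concentration series plus untreated control.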
Background: Tetrazolium assays rely on reduction of a dye to a coloured formazan, in cell work by metabolically active cells.

The subject of the next experiment is Mino cells. Nature of the experiment: Antiproliferative effect, MTS cell viability assay, Mino cells. The conditions noted are these: Mino mantle cell lymphoma cells, read-out: IC50 (anti-proliferation) Mino cells. The method in brief: as §1

Data on 17 molecules can be found in patent US12139492B2 (Endotarget Inc., priority 2021, dated 2024).

The DC50 is the concentration giving 50% degradation. High values mean a less potent degrader, low ones a more potent degrader. For orientation: Dmax means the largest share of the target that was removed. High values mean deep degradation, low ones shallow degradation.

Like-named read-outs stand apart in the source and are kept apart here.

Sequence of BTK (Q06187 whole entry): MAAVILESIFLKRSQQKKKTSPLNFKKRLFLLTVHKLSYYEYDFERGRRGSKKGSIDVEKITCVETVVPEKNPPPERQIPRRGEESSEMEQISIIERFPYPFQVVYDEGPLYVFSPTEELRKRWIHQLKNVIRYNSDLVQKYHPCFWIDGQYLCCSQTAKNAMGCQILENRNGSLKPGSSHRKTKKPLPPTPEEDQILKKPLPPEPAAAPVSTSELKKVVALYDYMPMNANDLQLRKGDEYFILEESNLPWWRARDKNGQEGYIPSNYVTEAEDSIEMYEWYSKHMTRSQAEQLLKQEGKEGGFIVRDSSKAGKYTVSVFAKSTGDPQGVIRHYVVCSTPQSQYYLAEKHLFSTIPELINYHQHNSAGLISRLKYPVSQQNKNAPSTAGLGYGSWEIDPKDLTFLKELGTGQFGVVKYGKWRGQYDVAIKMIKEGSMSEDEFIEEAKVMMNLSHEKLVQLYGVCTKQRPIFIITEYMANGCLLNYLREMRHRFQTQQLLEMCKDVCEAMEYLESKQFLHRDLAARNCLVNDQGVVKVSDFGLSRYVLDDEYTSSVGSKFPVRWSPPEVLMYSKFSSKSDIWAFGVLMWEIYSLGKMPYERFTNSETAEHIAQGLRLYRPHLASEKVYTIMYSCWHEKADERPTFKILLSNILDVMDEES

“3-(5-(4-(2-(2-(3-(4-amino-3-(4- phenoxyphenyl)-1H-pyrazolo[3,4- d]pyrimidin-1-yl)piperidin-1- yl)ethoxy)ethyl)piperidin-1-yl)-1- oxoisindolin-2-yl)piperidine-2,6- dione [Compound 24]”: at BTK, the “Dmax (BTK degradation)” value is given as “A (A >90%)” and the DC50 lay within 0.01 to 0.05 µM. The IC50 with JeKo-1 cells fell in the range of 1 to 10 µM. Also, the IC50 with Mino cells lay in the range of 1 to 10 µM.
At BTK, `Nc1ncnc2c1c(-c1ccc(Oc3ccccc3)cc1)nn2C1CCCN(CCOCCOCCN2CCN(c3ccc4c(c3)C(=O)N(C3CCC(=O)NC3=O)C4=O)CC2)C1` (centres unmarked) [Compound 3, 5-(4-(2-(2-(2-(3-(4-amino-3-(4-phenoxyphenyl)-1H-pyrazolo[3,4-d]pyrimidin-1-yl)piperidin-1-yl)ethoxy)ethoxy)ethyl)piperazin-1-yl)-2-(2,6-dioxopiperidin-3-yl)isoindoline-1,3-dione] returned a Dmax of more than 90% and a DC50 of less than 0.01 µM. Moreover, the IC50 in the experiment with JeKo-1 cells (Homo sapiens) is 1 to 10 µM. Also, the IC50 with Mino cells (Homo sapiens, MINO) lay within 1 to 10 µM.
Take `Nc1ncnc2c1c(-c1ccc(Oc3ccccc3)cc1)nn2C1CCCN(CCOCCOCCN2CCN(c3ccc4c(c3)CN(C3CCC(=O)NC3=O)C4=O)CC2)C1` (centres unmarked) [Compound 4, 3-(5-(4-(2-(2-(2-(3-(4-amino-3-(4-phenoxyphenyl)-1H-pyrazolo[3,4-d]pyrimidin-1-yl)piperidin-1-yl)ethoxy)ethoxy)ethyl)piperazin-1-yl)-1-oxoisoindolin-2-yl)piperidine-2,6-dione]: on BTK, the Dmax was more than 90% and the DC50 was less than 0.01 µM. In the experiment with JeKo-1 cells (Homo sapiens), the IC50 fell in the range of 1 to 10 µM. Also, in the experiment with Mino cells (Homo sapiens, MINO), the IC50 fell in the range of 1 to 10 µM.
As to `Nc1ncnc2c1c(-c1ccc(Oc3ccccc3)cc1)nn2C1CCN(CCOCCN2CCN(c3ccc4c(c3)C(=O)N(C3CCC(=O)NC3=O)C4=O)CC2)CC1` (centres unmarked) [Compound 5, 5-(4-(2-(2-(4-(4-amino-3-(4-phenoxyphenyl)-1H-pyrazolo[3,4-d]pyrimidin-1-yl)piperidin-1-yl)ethoxy)ethyl)piperazin-1-yl)-2-(2,6-dioxopiperidin-3-yl)isoindoline-1,3-dione], the maximal degradation (Dmax) at BTK is more than 90%. On BTK, the DC50 lay in the range of 0.01 to 0.05 µM. The IC50 in the experiment on JeKo-1 cells (Homo sapiens) was 1 to 10 µM; in the experiment with Mino cells (Homo sapiens, MINO), 1 to 10 µM.
At BTK, `Nc1ncnc2c1c(-c1ccc(Oc3ccccc3)cc1)nn2C1CCN(CCOCCN2CCN(c3ccc4c(c3)CN(C3CCC(=O)NC3=O)C4=O)CC2)CC1` (centres unmarked) [Compound 6, 3-(5-(4-(2-(2-(4-(4-amino-3-(4-phenoxyphenyl)-1H-pyrazolo[3,4-d]pyrimidin-1-yl)piperidin-1-yl)ethoxy)ethyl)piperazin-1-yl)-1-oxoisoindolin-2-yl)piperidine-2,6-dione] returned a Dmax of more than 90% and a DC50 of 0.01 to 0.05 µM. Moreover, in the experiment with JeKo-1 cells (Homo sapiens), the IC50 was less than 1 µM. Besides, in the experiment with Mino cells (Homo sapiens, MINO), the IC50 was less than 1 µM.
With `Nc1ncnc2c1c(-c1ccc(Oc3ccccc3)cc1)nn2C1CCCN(CCOCCN2CCN(c3ccc4c(c3)C(=O)N(C3CCC(=O)NC3=O)C4=O)CC2)C1` (centres unmarked) [Compound 7, 5-(4-(2-(2-(3-(4-amino-3-(4-phenoxyphenyl)-1H-pyrazolo[3,4-d]pyrimidin-1-yl)piperidin-1-yl)ethoxy)ethyl)piperazin-1-yl)-2-(2,6-dioxopiperidin-3-yl)isoindoline-1,3-dione], on BTK, the Dmax is more than 75% and the DC50 lay within 0.01 to 0.05 µM. Also, the IC50 with JeKo-1 cells (Homo sapiens) was 1 to 10 µM. The IC50 in the experiment with Mino cells (Homo sapiens, MINO) was 1 to 10 µM.
At BTK, `Nc1ncnc2c1c(-c1ccc(Oc3ccccc3)cc1)nn2C1CCCN(CCOCCN2CCN(c3ccc4c(c3)CN(C3CCC(=O)NC3=O)C4=O)CC2)C1` (centres unmarked) [Compound 8, 3-(5-(4-(2-(2-(3-(4-amino-3-(4-phenoxyphenyl)-1H-pyrazolo[3,4-d]pyrimidin-1-yl)piperidin-1-yl)ethoxy)ethyl)piperazin-1-yl)-1-oxoisoindolin-2-yl)piperidine-2,6-dione] returned a Dmax of more than 90% and a DC50 of 0.01 to 0.05 µM. In addition, in the experiment with JeKo-1 cells (Homo sapiens), the IC50 is 1 to 10 µM. Moreover, the IC50 in the experiment on Mino cells (Homo sapiens, MINO) is 1 to 10 µM.
Molecule `Nc1ncnc2c1c(-c1ccc(Oc3ccccc3)cc1)nn2C1CCN(CCOCCOCCN2CCC(c3ccc4c(c3)C(=O)N(C3CCC(=O)NC3=O)C4=O)CC2)CC1` (centres unmarked) [Compound 9, 5-(1-(2-(2-(2-(4-(4-amino-3-(4-phenoxyphenyl)-1H-pyrazolo[3,4-d]pyrimidin-1-yl)piperidin-1-yl)ethoxy)ethoxy)ethyl)piperidin-4-yl)-2-(2,6-dioxopiperidin-3-yl)isoindoline-1,3-dione] gave a Dmax at BTK of more than 90%. This molecule had a DC50 on BTK of less than 0.01 µM. Besides, the IC50 was 1 to 10 µM in the experiment with JeKo-1 cells (Homo sapiens) and 1 to 10 µM with Mino cells (Homo sapiens, MINO).
At BTK, `Nc1ncnc2c1c(-c1ccc(Oc3ccccc3)cc1)nn2C1CCN(CCOCCOCCN2CCC(c3ccc4c(c3)CN(C3CCC(=O)NC3=O)C4=O)CC2)CC1` (centres unmarked) [Compound 10, 3-(5-(1-(2-(2-(2-(4-(4-amino-3-(4-phenoxyphenyl)-1H-pyrazolo[3,4-d]pyrimidin-1-yl)piperidin-1-yl)ethoxy)ethoxy)ethyl)piperidin-4-yl)-1-oxoisoindolin-2-yl)piperidine-2,6-dione] displayed a Dmax of more than 90%. The DC50 on BTK is less than 0.01 µM. Besides, the IC50 in the experiment on JeKo-1 cells (Homo sapiens) is 1 to 10 µM; in the experiment with Mino cells (Homo sapiens, MINO), less than 1 µM.
The corresponding values for `Nc1ncnc2c1c(-c1ccc(Oc3ccccc3)cc1)nn2C1CCN(CCOCCN2CCC(c3ccc4c(c3)C(=O)N(C3CCC(=O)NC3=O)C4=O)CC2)CC1` (centres unmarked) [Compound 11, 5-(1-(2-(2-(4-(4-amino-3-(4-phenoxyphenyl)-1H-pyrazolo[3,4-d]pyrimidin-1-yl)piperidin-1-yl)ethoxy)ethyl)piperidin-4-yl)-2-(2,6-dioxopiperidin-3-yl)isoindoline-1,3-dione] are more than 90%, 0.01 to 0.05 µM, 1 to 10 µM and 1 to 10 µM.
The corresponding values for `Nc1ncnc2c1c(-c1ccc(Oc3ccccc3)cc1)nn2C1CCN(CCOCCN2CCC(c3ccc4c(c3)CN(C3CCC(=O)NC3=O)C4=O)CC2)CC1` (centres unmarked) [Compound 12, 3-(5-(1-(2-(2-(4-(4-amino-3-(4-phenoxyphenyl)-1H-pyrazolo[3,4-d]pyrimidin-1-yl)piperidin-1-yl)ethoxy)ethyl)piperidin-4-yl)-1-oxoisoindolin-2-yl)piperidine-2,6-dione] are more than 90%, 0.01 to 0.05 µM, less than 1 µM and less than 1 µM.
The corresponding values for `Nc1ncnc2c1c(-c1ccc(Oc3ccccc3)cc1)nn2C1CCCN(CCOCCOCCN2CCC(c3ccc4c(c3)C(=O)N(C3CCC(=O)NC3=O)C4=O)CC2)C1` (centres unmarked) [Compound 13, 5-(1-(2-(2-(2-(3-(4-amino-3-(4-phenoxyphenyl)-1H-pyrazolo[3,4-d]pyrimidin-1-yl)piperidin-1-yl)ethoxy)ethoxy)ethyl)piperidin-4-yl)-2-(2,6-dioxopiperidin-3-yl)isoindoline-1,3-dione] are more than 75%, 0.01 to 0.05 µM, 1 to 10 µM and 1 to 10 µM.
On to `Nc1ncnc2c1c(-c1ccc(Oc3ccccc3)cc1)nn2C1CCCN(CCOCCOCCN2CCC(c3ccc4c(c3)CN(C3CCC(=O)NC3=O)C4=O)CC2)C1` (centres unmarked) [Compound 14, 3-(5-(1-(2-(2-(2-(3-(4-amino-3-(4-phenoxyphenyl)-1H-pyrazolo[3,4-d]pyrimidin-1-yl)piperidin-1-yl)ethoxy)ethoxy)ethyl)piperidin-4-yl)-1-oxoisoindolin-2-yl)piperidine-2,6-dione], for which, at BTK, the Dmax was more than 90% and the DC50 is 0.01 to 0.05 µM. Also, in the experiment with JeKo-1 cells (Homo sapiens), the IC50 lay in the range of 1 to 10 µM. Besides, the IC50 in the experiment with Mino cells (Homo sapiens, MINO) lay within 1 to 10 µM.
On BTK, `Nc1ncnc2c1c(-c1ccc(Oc3ccccc3)cc1)nn2C1CCCN(CCOCCN2CCC(c3ccc4c(c3)C(=O)N(C3CCC(=O)NC3=O)C4=O)CC2)C1` (centres unmarked) [Compound 15, 5-(1-(2-(2-(3-(4-amino-3-(4-phenoxyphenyl)-1H-pyrazolo[3,4-d]pyrimidin-1-yl)piperidin-1-yl)ethoxy)ethyl)piperidin-4-yl)-2-(2,6-dioxopiperidin-3-yl)isoindoline-1,3-dione] showed a maximal degradation (Dmax) of more than 75% and a DC50 of 0.01 to 0.05 µM. In addition, in the experiment on JeKo-1 cells (Homo sapiens), the IC50 fell in the range of 1 to 10 µM. For the same molecule, the IC50 with Mino cells (Homo sapiens, MINO) was 1 to 10 µM.
At BTK, `Nc1ncnc2c1c(-c1ccc(Oc3ccccc3)cc1)nn2C1CCCN(CCOCCN2CCC(c3ccc4c(c3)CN(C3CCC(=O)NC3=O)C4=O)CC2)C1` (centres unmarked) [Compound 16, 3-(5-(1-(2-(2-(3-(4-amino-3-(4-phenoxyphenyl)-1H-pyrazolo[3,4-d]pyrimidin-1-yl)piperidin-1-yl)ethoxy)ethyl)piperidin-4-yl)-1-oxoisoindolin-2-yl)piperidine-2,6-dione] showed a Dmax of more than 90% and a DC50 of 0.01 to 0.05 µM. The IC50 with JeKo-1 cells (Homo sapiens) was in the range of 1 to 10 µM. Moreover, the IC50 with Mino cells (Homo sapiens, MINO) lay in the range of 1 to 10 µM.
On BTK, `Nc1ncnc2c1c(-c1ccc(Oc3ccccc3)cc1)nn2C1CCN(CCOCCOCCC2CCN(c3ccc4c(c3)C(=O)N(C3CCC(=O)NC3=O)C4=O)CC2)CC1` (centres unmarked) [Compound 17, 5-(4-(2-(2-(2-(4-(4-amino-3-(4-phenoxyphenyl)-1H-pyrazolo[3,4-d]pyrimidin-1-yl)piperidin-1-yl)ethoxy)ethoxy)ethyl)piperidin-1-yl)-2-(2,6-dioxopiperidin-3-yl)isoindoline-1,3-dione] returned a Dmax of more than 90% and a DC50 of less than 0.01 µM. Further, the IC50 in the experiment with JeKo-1 cells (Homo sapiens) was 1 to 10 µM. Moreover, the IC50 in the experiment with Mino cells (Homo sapiens, MINO) lay in the range of 1 to 10 µM.
At BTK, `Nc1ncnc2c1c(-c1ccc(Oc3ccccc3)cc1)nn2C1CCN(CCOCCOCCC2CCN(c3ccc4c(c3)CN(C3CCC(=O)NC3=O)C4=O)CC2)CC1` (centres unmarked) [Compound 18, 3-(5-(4-(2-(2-(2-(4-(4-amino-3-(4-phenoxyphenyl)-1H-pyrazolo[3,4-d]pyrimidin-1-yl)piperidin-1-yl)ethoxy)ethoxy)ethyl)piperidin-1-yl)-1-oxoisoindolin-2-yl)piperidine-2,6-dione] registered a Dmax of more than 90% and a half-maximal degradation concentration (DC50) of less than 0.01 µM. Besides, in the experiment with JeKo-1 cells (Homo sapiens), the IC50 was less than 1 µM. Further, the IC50 in the experiment with Mino cells (Homo sapiens, MINO) was in the range of 1 to 10 µM.
